Test results taken from patent US20160038519A1, “ADMINISTRATION OF KARENITECIN FOR THE TREATMENT OF ADVANCED OVARIAN CANCER, INCLUDING CHEMOTHERAPY-RESISTANT AND/OR THE MUCINOUS ADENOCARCINOMA SUB-TYPES” (BioNumerik Pharmaceuticals, Inc., priority 2014, published 2016).
≈ marks a conversion by molar mass, not a printed value. Entries after “also recorded” stand apart in the source; their conditions may differ. Where two headings read alike, the source gives them in different places.

Assays:
[1] = test system: OMC3 Cell Line; assay: SRB cytotoxicity assay, OMC3; format: cell-based, human; conditions: Homo sapiens
Procedure: (§1) In vitro studies were conducted in human mucinous ovarian cancer cell lines including JHOM2B, OMC3, and COV644. In one series of experiments, the dose response curves for BNP1350 (also known as Karenitecin), SN-38 (Irinotecan), and Topotecan were obtained and IC50 values were determined. In a second series of experiments, the effect of BNP7787 (2,2′-dithio-bis-ethane sulfonate; Tavocept) on BNP1350-induced cytotoxicity at selected BNP1350 concentrations was examined.
(§2) The JHOM2B and OMC3 cell lines were purchased from Riken Cell Bank (Japan). The COV644 cell line was purchased from SigmaAldrich. Cells were maintained as monolayered cultures in T-75 flasks and then seeded to microtiter plate wells for experiments. Population doubling-times for these three cell lines were long (i.e., exceeding 40 hours, and for some of the cell lines approaching 96 hours); therefore, the Applicants conducted initial pilot experiments and determined optimal seeding density to obtain A570 values in untreated controls that would fall within the linear range of the SRB assay after seven (7) total days of cell growth. JHOM2B cells were cultured in DMEM:F12 (1:1)+0.1 mM non-essential amino acids (NEAA)+10% FBS and were seeded at 6,000 cells per well. OMC3 cells were cultured in HamF12+10% FBS and were seeded at 8,000 cells per well. COV644 cells were cultured in DMEM+2 mM glutamine+10% FBS and were seeded at 6,000 cells per well.
(§3) The cells were manipulated in a Microzone laminar flow hood traditionally used for maintaining aseptic environments around automated instrumentation such as microplate robots, and the like. Cells were grown and maintained at 37° C. in a humidified atmosphere containing 5% CO2 in a water jacketed cell culture incubator (Forma Scientific). Cells were counted using a ViCell counter (Beckman-Coulter). An automated plate washer/stacker (ELx405/BioStak from BioTek Instruments) and a microplate reader (SpectraMax Plus from Molecular Devices) were used for conducting the SRB assay and determining A570 values for wells in the plates and the percentage of control values. Prior to SRB assays, cell viability was monitored by evaluation of microtiter plate wells. Dead cells detach and float while living cells remain attached to the bottom of the cell well.
(§4) SN-38 (Irinotecan; Sigma H0165, lot MKBQ4981) and Topotecan (Sigma T2705, lot 052M4728V) were purchased from SigmaAldrich. BNP1350 (lot KN-C192-135) and BNP7787 (lot 205001) were synthesized at BioNumerik Pharmaceuticals, Inc. (San Antonio, Tex.). BNP1350, SN38, and Topotecan were prepared as 2.5, 2.5, and 25 mM stocks in DMSO (ATCC, cell culture grade).
(§5) The sulforhodamine B (SRB) cytotoxicity assay was used to assess cell survival. Briefly, after the medium was decanted from individual plate wells, trichloroacetic acid (100 μL of 10.0 percent solution) was added to each well, and the plates were incubated at 4° C. for 1 hour. The plates were washed five times with water using an automated microplate washer (Model ELx405, Bio-Tek Instruments), SRB solution (100 μL of 0.4% SRB dissolved in 1.0 percent acetic acid) was added, and plates remained at room temperature for 15 minutes. The plates were then washed five times using acetic acid (1.0 percent), air dried, and bound dye was solubilized in Tris base (150 μL, 10 mM). Plates were agitated (gently) for 5 minutes and the absorbance values of the SRB dye-protein adduct at 570 nanometers (A570) were determined using an automated microtiter plate reader (SpectraMax Plus, Molecular Devices). IC50 values were extrapolated from dose response curves of the data using OriginLab Software.

[2] = Limit of solubility in cell culture medium; format: physicochemical; conditions: aqueous buffer
Procedure: (§6) The 1050 values exceeded the solubility in medium for each compound—the limit of solubility in cell culture medium for the compounds were as follows: 2 micromolar for BNP1350 and SN38, and 20 micromolar for Topotecan. Cells were treated for periods of 2.5 hours or 6 hours and, in each case, the […] values were not reached. Longer treatments were not performed.

[3] = test system: COV644 Cell Line; assay: SRB cytotoxicity assay, COV644; format: cell-based, human
Procedure: as §1, §2, §3, §4, §5, §6

[4] = test system: advanced ovarian cancer; assay: Phase II study in advanced ovarian cancer after failed prior treatments; format: in vivo, human
[5] = test system: Fischer rats; conditions: rat, in vivo, iv
[6] = Phase I clinical studies of intravenous Karenitecin; format: in vivo, human
Procedure: Results from three Phase I studies indicate that Karenitecin can be safely administered to subjects at the dose level of 1.0 mg/m^2/day i.v. over a one hour period of time for 5 consecutive days in a 3-week treatment cycle. […] Any gastrointestinal toxicity is generally ≦grade 2 and is not dose-limiting.
Intravenous administration of Karenitecin has been evaluated in three Phase I clinical studies in subjects with the following cancer types: (i) advanced solid tumors (adult subjects) (see, e.g., Schilsky, R. L., Hausheer, F. H., et al., Phase I trial of karenitecin administered intravenously daily for five consecutive days in subjects with advanced solid tumors using accelerated dose titration [abstract]. ASCO Abstract 758 (2000)); (ii) refractory or recurrent solid tumors (pediatric subjects); and (iii) recurrent malignant glioma (adult subjects). Intravenous administration of Karenitecin has also been evaluated in four Phase 2 clinical studies in adult subjects with the following cancer types: (i) primary malignant glioma; (ii) third-line treatment of persistent or recurrent epithelial ovarian or primary peritoneal carcinoma; (iii) malignant melanoma (see, e.g., Hausheer, F. H., et al., Phase II trial of Karenitecin (BNP1350) in malignant melanoma: clinical and translational study [abstract]. ASCO Abstract 7554 (2004); and (iv) relapsed or refractory non-small cell lung cancer (see, e.g., Miller, A. A., et al., MR for the Cancer and Leukemia Group B. Phase II trial of karenitecin in subjects with relapsed or refractory non-small cell lung cancer (CALGB 30004) Lung Cancer 48:399-407 (2005)).

[7] = Lactone stability in humans; format: in vivo, human
[8] = test system: beagle dogs; assay: Preclinical toxicology, oral single daily doses for five consecutive days, beagle dogs; conditions: oral vs i.v.
[9] = as above; conditions: beagle, dog, in vivo, po
[10] = Toxicology study of single daily doses given orally and intravenously for five consecutive days; format: in vivo; conditions: oral and i.v. single daily doses

CC[C@@]1(O)C(=O)OCc2c1cc1n(c2=O)Cc2c-1nc1ccccc1c2CC[Si](C)(C)C [Karenitecin, (4S)-4-ethyl-4-hydroxy-11-[2-(trimethylsilyl)ethyl]-1H-pyrano[3′:4′:6,7]indolizino[1,2-b]quinoline-3,14(4H,12H)-dione]
IC50 ([1]; 2 hour drug exposure, average of Test 1 and Test 2, read-out: IC50, Average): 0.0495 µM
IC50 ([1]; 2 hour drug exposure, read-out: IC50, Test 1 (2 replicate plates)): 0.057 ± 0.004 µM
IC50 ([1]; 2 hour drug exposure, read-out: IC50, Test 2 (3 replicate plates)): 0.042 ± 0.006 µM
IC50 ([1]; read-out: IC50 values): 0.0495 µM
solubility [2]: 2 µM (≈ 0.897 µg/mL)
IC50 ([3]; Homo sapiens, 2, 5, and 6 hour drug exposures, did not reach 50% of Control, read-out: IC50, Test 1 (2 replicate plates)): > 2 µM
IC50 ([3]; Homo sapiens, 2, 5, and 6 hour drug exposures, did not reach 50% of Control, read-out: IC50, Test 2 (2 to 3 replicate plates)): > 2 µM
IC50 ([3]; Homo sapiens, 2, 5, and 6 hour drug exposures, read-out: IC50, Average): > 2 µM
IC50 ([3]; Homo sapiens, read-out: IC50 values): > 2 µM
Time to Progression (TTP) compared with historical results reported with Topotecan [4]: prolonged
Toxicities observed [5]: reversible myelosuppression (predominantly neutropenia)
Gastrointestinal toxicity grade ([6]; i.v. 1.0 mg/m^2/day x5, 3-week cycle, not dose-limiting): ≤ 2 grade
Dose-limiting toxicity ([6]; i.v., Phase I clinical studies): non-cumulative, reversible myelosuppression; also recorded: reversible and non-cumulative neutropenia and thrombocytopenia
Hypersensitivity reactions reported by subjects ([6]; to date): no hypersensitivity reactions
Lactone stability [7]: approximately 85%
MTD of oral relative to intravenous (i.v.) Karenitecin [8]: approximately 2 times
MTD at 5 days [9]: 0.075 mg/kg
Tolerability of oral doses [10]: good tolerability
